Earlier results, collected in patent US20050261194A1, “Use of thymulin-like peptides for making pain-relieving medicines” (priority 2001, published 2005).
Where no end group is shown, it is not given here. [ ]: non-standard residue; d: D form. pGlu = O=C1CC[C@@H](C(=O)O)N1

System: rat
Settings: cited from earlier work

PyroGlu-Ala-Lys-Ser-Gln-Gly-Gly-Ser-Asn ([pGlu]AKSQGGSN) [thymuline]
effect on hyperalgesia at higher doses (micrograms in the rat, 50-100 μg/kg): reduces hyperalgesia | effect on hyperalgesia at low dose (nanograms in the rat, 0.2 to 20 μg/kg): induces hyperalgesia
